{"source": "PubChem BioAssay (NCI)", "assay_in_all_cases": "NCI-60 cell line screen, 384-well format", "key": {"T-47D breast": {"test_system": "T-47D breast"}, "M14 melanoma": {"test_system": "M14 melanoma"}, "CCRF-CEM leukemia": {"test_system": "CCRF-CEM leukemia"}, "PC-3 prostate": {"test_system": "PC-3 prostate"}, "BT-549 breast": {"test_system": "BT-549 breast"}, "SNB-75 CNS": {"test_system": "SNB-75 CNS"}, "KM12 colon": {"test_system": "KM12 colon"}, "SW-620 colon": {"test_system": "SW-620 colon"}, "NCI-H522 lung": {"test_system": "NCI-H522 lung"}, "SK-MEL-5 melanoma": {"test_system": "SK-MEL-5 melanoma"}, "HOP-92 NSCLC": {"test_system": "HOP-92 NSCLC"}, "HT29 colon": {"test_system": "HT29 colon"}, "NCI/ADR-RES ovarian": {"test_system": "NCI/ADR-RES ovarian"}, "MDA-MB-468 breast": {"test_system": "MDA-MB-468 breast"}, "NCI-H322M lung": {"test_system": "NCI-H322M lung"}, "UO-31 renal": {"test_system": "UO-31 renal"}, "OVCAR-4 ovarian": {"test_system": "OVCAR-4 ovarian"}, "EKVX NSCLC": {"test_system": "EKVX NSCLC"}, "ACHN renal": {"test_system": "ACHN renal"}, "HCT-15 colon": {"test_system": "HCT-15 colon"}, "SN12C renal": {"test_system": "SN12C renal"}, "SR leukemia": {"test_system": "SR leukemia"}, "UACC-257 melanoma": {"test_system": "UACC-257 melanoma"}, "TK-10 renal": {"test_system": "TK-10 renal"}, "A498 renal": {"test_system": "A498 renal"}, "K-562 leukemia": {"test_system": "K-562 leukemia"}, "HCT-116 colon": {"test_system": "HCT-116 colon"}, "RPMI-8226 leukemia": {"test_system": "RPMI-8226 leukemia"}, "SNB-19 CNS": {"test_system": "SNB-19 CNS"}}, "note": "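Here, GI50 denotes the concentration required for 50% inhibition of growth. At the TGI there is no net growth.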"}
{"smiles": "O=C(O)CSc1cc(NS(=O)(=O)c2ccc(Br)cc2)c2ccccc2c1O", "values": [{"measurement": "GI50", "setting": "T-47D breast", "value": 2.61, "unit": "µM"}, {"measurement": "TGI", "setting": "T-47D breast", "value": 5.11, "unit": "µM"}, {"measurement": "GI50", "setting": "M14 melanoma", "value": 3.11, "unit": "µM"}, {"measurement": "TGI", "setting": "M14 melanoma", "value": 7.41, "unit": "µM"}, {"measurement": "GI50", "setting": "CCRF-CEM leukemia", "value": 2.02, "unit": "µM"}, {"measurement": "TGI", "setting": "CCRF-CEM leukemia", "value": 3.45, "unit": "µM"}, {"measurement": "GI50", "setting": "PC-3 prostate", "value": 2.38, "unit": "µM"}, {"measurement": "TGI", "setting": "PC-3 prostate", "value": 5.77, "unit": "µM"}, {"measurement": "GI50", "setting": "BT-549 breast", "value": 2.93, "unit": "µM"}, {"measurement": "TGI", "setting": "BT-549 breast", "value": 7.45, "unit": "µM"}, {"measurement": "GI50", "setting": "SNB-75 CNS", "value": 2.19, "unit": "µM"}, {"measurement": "TGI", "setting": "SNB-75 CNS", "value": 4.5, "unit": "µM"}, {"measurement": "GI50", "setting": "KM12 colon", "value": 4.91, "unit": "µM"}, {"measurement": "TGI", "setting": "KM12 colon", "value": 16.2, "unit": "µM"}, {"measurement": "GI50", "setting": "SW-620 colon", "value": 2.42, "unit": "µM"}, {"measurement": "TGI", "setting": "SW-620 colon", "value": 6.09, "unit": "µM"}, {"measurement": "GI50", "setting": "NCI-H522 lung", "value": 7.47, "unit": "µM"}, {"measurement": "TGI", "setting": "NCI-H522 lung", "value": 20, "unit": "µM"}, {"measurement": "GI50", "setting": "SK-MEL-5 melanoma", "value": 1.98, "unit": "µM"}, {"measurement": "TGI", "setting": "SK-MEL-5 melanoma", "value": 3.52, "unit": "µM"}, {"measurement": "GI50", "setting": "HOP-92 NSCLC", "value": 2.24, "unit": "µM"}, {"measurement": "TGI", "setting": "HOP-92 NSCLC", "value": 4.57, "unit": "µM"}, {"measurement": "GI50", "setting": "HT29 colon", "value": 3.94, "unit": "µM"}, {"measurement": "TGI", "setting": "HT29 colon", "value": 11.9, "unit": "µM"}, {"measurement": "GI50", "setting": "NCI/ADR-RES ovarian", "value": 2.22, "unit": "µM"}, {"measurement": "TGI", "setting": "NCI/ADR-RES ovarian", "value": 4.79, "unit": "µM"}, {"measurement": "GI50", "setting": "MDA-MB-468 breast", "value": 1.39, "unit": "µM"}, {"measurement": "TGI", "setting": "MDA-MB-468 breast", "value": 2.7, "unit": "µM"}, {"measurement": "GI50", "setting": "NCI-H322M lung", "value": 16.2, "unit": "µM"}, {"measurement": "TGI", "setting": "NCI-H322M lung", "value": 29.7, "unit": "µM"}, {"measurement": "GI50", "setting": "UO-31 renal", "value": 2.05, "unit": "µM"}, {"measurement": "TGI", "setting": "UO-31 renal", "value": 3.91, "unit": "µM"}, {"measurement": "GI50", "setting": "OVCAR-4 ovarian", "value": 1.73, "unit": "µM"}, {"measurement": "TGI", "setting": "OVCAR-4 ovarian", "value": 3.12, "unit": "µM"}, {"measurement": "GI50", "setting": "EKVX NSCLC", "value": 1.92, "unit": "µM"}, {"measurement": "TGI", "setting": "EKVX NSCLC", "value": 3.63, "unit": "µM"}, {"measurement": "GI50", "setting": "ACHN renal", "value": 4.15, "unit": "µM"}, {"measurement": "TGI", "setting": "ACHN renal", "value": 13.6, "unit": "µM"}, {"measurement": "GI50", "setting": "HCT-15 colon", "value": 10.6, "unit": "µM"}, {"measurement": "TGI", "setting": "HCT-15 colon", "value": 22.4, "unit": "µM"}, {"measurement": "GI50", "setting": "SN12C renal", "value": 2.03, "unit": "µM"}, {"measurement": "TGI", "setting": "SN12C renal", "value": 3.64, "unit": "µM"}, {"measurement": "GI50", "setting": "SR leukemia", "value": 2.6, "unit": "µM"}, {"measurement": "TGI", "setting": "SR leukemia", "value": 4.08, "unit": "µM"}, {"measurement": "GI50", "setting": "UACC-257 melanoma", "value": 1.65, "unit": "µM"}, {"measurement": "TGI", "setting": "UACC-257 melanoma", "value": 3.03, "unit": "µM"}, {"measurement": "GI50", "setting": "TK-10 renal", "value": 14.2, "unit": "µM"}, {"measurement": "TGI", "setting": "TK-10 renal", "value": 27.2, "unit": "µM"}, {"measurement": "GI50", "setting": "A498 renal", "value": 16.9, "unit": "µM"}, {"measurement": "TGI", "setting": "A498 renal", "value": 30.6, "unit": "µM"}, {"measurement": "GI50", "setting": "K-562 leukemia", "value": 1.39, "unit": "µM"}, {"measurement": "TGI", "setting": "K-562 leukemia", "value": 2.71, "unit": "µM"}, {"measurement": "GI50", "setting": "HCT-116 colon", "value": 2.19, "unit": "µM"}, {"measurement": "TGI", "setting": "HCT-116 colon", "value": 4.15, "unit": "µM"}, {"measurement": "GI50", "setting": "RPMI-8226 leukemia", "value": 1.63, "unit": "µM"}, {"measurement": "TGI", "setting": "RPMI-8226 leukemia", "value": 3.37, "unit": "µM"}, {"measurement": "GI50", "setting": "SNB-19 CNS", "value": 5.03, "unit": "µM"}, {"measurement": "TGI", "setting": "SNB-19 CNS", "value": 15.4, "unit": "µM"}]}
